The structures appear in SMILES notation.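 Dose response: 5 concentrations. Exposure: 48 h. Format: 96-well plates. Endpoint: linear interpolation; highest concentration if not reached. Definition used: TGI = concentration required for complete inhibition of growth.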

Here are results for twelve compounds from PubChem BioAssay (NCI).

Common to all, as to assay: NCI-60 cell line screen, 48 h
In assay [1] the test system is 786-0 renal.
The subject of assay [2] is COLO 205 colon.
Assay [3] deals with HCT-15 colon.
Assay [4] relates to HT29 colon.
The test system of assay [5] is MALME-3M melanoma.
In assay [6] the test system is MDA-N.
Assay [7] has as its system NCI-H23 lung.
The subject of assay [8] is RXF 393 renal.
Assay [9] deals with U251 CNS.
In assay [10] the test system is UACC-257 melanoma.
In assay [11] the test system is A498 renal.

Turning to `Cc1ccc(S(=O)(=O)N/N=C2\C3CC4CC(C3)C2C4)cc1` (stereo not given), the TGI in assay [1], in assay [2], in [3], in assay [4], in assay [5] and in [6] was greater than 100 µM in each case. Besides, the TGI in assay [7], in [8], in [9] and in assay [10] was greater than 100 µM throughout.
Take `O=C1/C(=C\c2cccc(Oc3ccccc3)c2)SC(c2ccccc2)N1c1cccc([N+](=O)[O-])c1` (stereo not given): the TGI in [1], in assay [11], in assay [2], in [3], in assay [4] and in assay [5] was greater than 100 µM each time. In addition, the TGI in assay [6], in assay [7], in [8], in [9] and in assay [10] was greater than 100 µM each time.
Regarding `COc1ccc(C(=O)c2ccc(-n3cc(/C=C/[N+](=O)[O-])c4ccccc43)cc2)cc1`, the TGI in [1] is 11.2 µM; in assay [11], 44.9 µM; in [2], greater than 63.5 µM; in assay [3] it was 41.1 µM; in assay [4] it was 57.3 µM; in assay [5] it was 46.8 µM. Further, the TGI was greater than 58.9 µM in assay [6]; 52.4 µM in [7]; 10.8 µM in [8]; 24.9 µM in assay [9]; 31.3 µM in [10].
Take `O=S1(=O)OCCOS(=O)(=O)C1Cc1nc2ccccc2[nH]1`: the TGI in assay [1], in assay [2], in assay [3], in [4], in [5] and in assay [6] was greater than 100 µM in each case. For the same compound, the TGI in [7], in [9] and in assay [10] was greater than 100 µM in each case.
In the case of `CC1=C2NCN(C)N=C2C(C#N)(C#N)C1(C#N)C#N`, the TGI in assay [1] was 37.7 µM; in [11], greater than 100 µM; in [2] it was 19.9 µM; in assay [3] it was 40.5 µM; in assay [4], 51.3 µM; in [5], 44.2 µM. The TGI in [6] was 30 µM; in [7], 21.4 µM; in assay [8], 42.7 µM; in assay [9], greater than 76.9 µM; in assay [10], 33.9 µM.
With `CC(C)C1CC(CO)(CNc2cc(Cl)nc(N)n2)C1` (stereo not given), the TGI in assay [1] was greater than 100 µM; in assay [11], 65.9 µM; in assay [2], greater than 100 µM; in [3], greater than 100 µM; in [4], greater than 100 µM; in [5], greater than 100 µM. Besides, the TGI in assay [6], in [8], in [9] and in assay [10] was greater than 100 µM throughout.
Take `O=C(CSc1nc2ccc(I)cc2c(=O)n1Cc1ccccc1)NN1C(=O)CCC1=O`: the TGI in assay [1] is greater than 100 µM; in [2], greater than 100 µM; in [3], greater than 100 µM; in [4], greater than 100 µM; in assay [6] it was greater than 100 µM; in [7] it was 66.6 µM. Also, the TGI in [8] is 62.5 µM; in [9] it was greater than 100 µM; in [10] it was greater than 100 µM.
With `COC(=O)c1ccc(/C=C2\CCc3ccccc3C2=O)cc1`, the TGI in [1], in [11], in assay [2], in assay [3], in assay [4] and in assay [5] was greater than 100 µM throughout. The TGI in assay [6], in [7], in assay [8], in assay [9] and in assay [10] was greater than 100 µM throughout.
On to `Cc1cn([C@H]2[C@@H](CO)C[C@H]2O)c(=O)[nH]c1=O`, for which the TGI in assay [1], in assay [11], in assay [2], in assay [3], in [4] and in assay [5] was greater than 100 µM each time. Moreover, the TGI in assay [6], in [7], in assay [8], in [9] and in assay [10] was greater than 100 µM throughout.
For the compound `CC(=O)c1ccc(NC(=O)CSc2nc(C)nc3c2sc(=S)n3-c2ccccc2)cc1`, the TGI in assay [1], in assay [11], in assay [2], in [3], in [4] and in [5] was greater than 3.16 µM in each case. The TGI in [6], in assay [7], in assay [8], in assay [9] and in assay [10] was greater than 3.16 µM each time.
Consider `c1ccc([P+](c2ccccc2)(c2ccccc2)c2ccc([P+](c3ccccc3)(c3ccccc3)c3ccccc3)cc2)cc1`, for which the TGI in [1] was greater than 100 µM; in [11] it was greater than 100 µM; in [2] it was 50.8 µM; in assay [3] it was greater than 100 µM; in [4] it was greater than 100 µM; in [5], greater than 100 µM. Moreover, the TGI in [6], in assay [7], in [8], in assay [9] and in assay [10] was greater than 100 µM each time.
Regarding `O=c1oc2ccc(Cl)cc2cc1-c1cn2ccsc2n1`, the TGI in [1] was greater than 100 µM; in assay [2], 93.6 µM; in [3] it was greater than 100 µM; in assay [4], greater than 100 µM; in assay [5], greater than 100 µM; in assay [6], greater than 100 µM. Further, the TGI in assay [7], in assay [8], in assay [9] and in assay [10] was greater than 100 µM each time.
